Results on 7 molecules are retold here after paper PMC6535779, “A Specific, Glycomimetic Langerin Ligand for Human Langerhans Cell Targeting” (ACS Central Science, 2019).

One test concerns Langerin^– THP-1 cells. Nature of the test: Colorimetric cytotoxicity assay, Langerin- THP-1 cells. In kind it is cell-based, human. The settings on record: doxorubicin encapsulated in liposomes or free, 48 h. The procedure:
(§1) the PEG-DSPE was substituted with glycolipids 22 or 23 at varying ratios. PEG-DSPE (3.0 kDa, NOF Europe), 22 or 23 were dissolved in DMSO, added to a round bottom flask and lyophilized. Next, DSPC (NOF Europe) and cholesterol (Sigma Aldrich) were dissolved in chloroform, added to the test tube and the solvent was removed in vacuo. The residue was dissolved in PBS and the mixture was vortexed and sonicated repeatedly until a homogeneous suspension was obtained. Unilamellar liposomes were prepared using a pore extruder (Avanti Polar Lipids) with polycarbonate membranes of 800, 400, 200 and finally 100 nm pore size (Avanti Polar Lipids). […]
(§2) The Lipid-ELLA was conducted as previously published35. […] Binding of the Langerin ECD was detected via absorbance A450 measurements at 450 nm using a SpectraMax spectrometer (Molecular Devices) in three independent titrations.
(§3) CO2. […] After centrifugation at 400 g for 5 min the supernatant was analyzed in the TNF-α ELISA. […]
(§4) To assess the cytotoxicity of doxorubicin-containing liposomes with THP-1 cells, 50,000 cells per well were added to 96 well microtiter plates (Corning) and incubated in presence of liposomes at a given total lipid concentration [Lipid]T in a final volume of 100 μl for 48 h at 37°C and 5% CO2. Cell viability was analyzed using CellTiter 96 (Promega) by measuring formazan absorbance at 490 nm. […]

Another test concerns Langerin^+ THP-1 cells. Nature of the test: Colorimetric cytotoxicity assay, Langerin+ THP-1 cells. In kind it is cell-based, human. The settings on record: doxorubicin encapsulated in liposomes or free, 48 h. The procedure: as §1, §2, §3, §4
Test [1] concerns the target T1, Langerin extracellular domain (ECD) (Homo sapiens, UniProt Q9UJ71).
T1 construct: the trimeric Langerin extracellular domain (ECD) was expressed insolubly in E; made in house
In words: 19F R2-filtered NMR reporter displacement assay with Langerin. Format: binding. The settings on record: for Ki: 19F R2-filtered NMR, 0.1 mM reporter ligand 24, pH 7.8, 25 °C; for Relative potency, Langerin: calculated utilizing the KI value determined for GlcNAc. How it is done: Receptor Expression and Purification
General remarks. Codon-optimized genes for the expression of Langerin and DC-SIGN in E. coli were purchased from GenScript and Life Technologies, respectively. All growth media or chemicals used for receptor expression and purification were purchased from Carl Roth if not stated otherwise.
Langerin extracellular domain. Expression and purification were conducted as previously published14. Briefly, the trimeric Langerin extracellular domain (ECD) was expressed insolubly in E. coli BL21* (DE3) (Invitrogen). Following enzymatic cell lysis, inclusion bodies were harvested and subsequently solubilized. The sample was centrifuged and the Langerin ECD was refolded overnight via rapid dilution. Next, the sample was dialyzed overnight, centrifuged and purified via mannan-agarose affinity chromatography (Sigma Aldrich). For 19F R2-filtered NMR and lipid-enzyme-linked lectin assay (Lipid-ELLA) experiments, the buffer was exchanged to 25 mM Tris with 150 mM NaCl and 5 mM CaCl2 at pH 7.8 using 7 kDa size-exclusion desalting columns (Thermo Scientific). For […]
D2O, 150 mM NaCl and 5 mM CaCl2 at pH 7. The concentration of Langerin ECD was determined via UV spectroscopy (A280, 0.1% = 2.45). Purity and monodispersity of Langerin ECD samples were analyzed via SDS PAGE and DLS. […]
General remarks. 19F R2-filtered NMR experiments were conducted on a PremiumCompact 600 MHz spectrometer (Agilent). Spectra were processed in MestReNova and data analysis was performed with OriginPro 13, 15. Experiments with the Langerin ECD were performed at a receptor concentration of 50 μM in 25 mM Tris with 10% D2O, 150 mM NaCl and 5 mM CaCl2 at pH 7.8 and 25° C. […]
10% D2O, 150 mM NaCl and 5 mM CaCl2 at pH 7.0 and 25°C. TFA served as an internal reference at a concentration of 50 μM. Apparent relaxation rates R2,obs for the reporter ligand were determined using the CPMG pulse sequence as previously published3-5. […]
KI determination. KI values were determined as previously published for Langerin3. Briefly, titration experiments were conducted at a concentration of 0.1 mM of reporter ligand 24 at five competitor concentrations [I]T. Samples were prepared via serial dilution. For the acids GlcNS, GlcNAc-6-OS and GlcNS-6-OS the pH values were monitored and adjusted to 7.8 if necessary.
General remarks. 15N HSQC NMR experiments were conducted on an Ascend 700 MHz spectrometer (Bruker)16. Spectra were processed in NMRPipe17. Data analysis was performed using CCPN Analysis, MatLab and OriginPro15, 18-19. Experiments with the Langerin CRD were performed at a receptor concentration of 100 μM in 25 mM HEPES with 10% D 2O, 150 mM NaCl and 5 mM CaCl2 at pH 7.8 and 25° C. DSS-d6 served as an internal reference at a concentration of 100 μM. Spectra were referenced via the internal spectrometer reference. Spectra were acquired with 128 increments and 32 scans per increments for 150 μl samples in 3 mm sample tubes. The relaxation delay d1 was set to 1.4 s and the acquisition time tacq was set to 100 ms. The W5 Watergate pulse sequence was used for solvent suppression20. The used resonance assignment for the Langerin CRD has been published […]
KD determination. KD values were determined in titration experiments at six ligand concentrations [L]T. Samples were prepared via serial dilution. Chemical shift perturbations CSPs for Langerin CRD resonances in the fast or fast-to-intermediate exchange regime observed upon titration with ligand were calculated via Equation 121.

T1 sequence (Q9UJ71 65-328 limits assumed): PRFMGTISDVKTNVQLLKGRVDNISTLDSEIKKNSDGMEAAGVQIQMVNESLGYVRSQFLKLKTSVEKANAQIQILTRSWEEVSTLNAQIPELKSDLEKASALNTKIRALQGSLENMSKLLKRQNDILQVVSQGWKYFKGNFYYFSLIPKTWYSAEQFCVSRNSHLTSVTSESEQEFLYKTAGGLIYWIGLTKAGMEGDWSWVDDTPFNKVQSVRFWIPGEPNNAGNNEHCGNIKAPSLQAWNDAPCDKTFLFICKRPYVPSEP

Regarding `COc1cccc2c1C(=O)c1c(O)c3c(c(O)c1C2=O)C[C@@](O)(C(=O)CO)C[C@@H]3O[C@H]1C[C@H](N)[C@H](O)[C@H](C)O1` [free doxorubicin, doxorubicin], the “killing of Langerin^– THP-1 cells” value with Langerin^– THP-1 cells is “killed both Langerin^+ and Langerin^– cells”. Further, in the test on Langerin^+ THP-1 cells, the “killing of Langerin^+ THP-1 cells” value was “killed both Langerin^+ and Langerin^– cells”. One may read the Ki as the equilibrium dissociation constant of an inhibitor or competing ligand from its target. With `O=S(=O)(O)N[C@H]1C(O)O[C@H](CO)[C@@H](O)[C@@H]1O` (stereo partly shown) [GlcNS, glucosamine-2-sulfate], in test [1], the Ki came to 1.4 ± 0.2 mM and the “Relative potency, Langerin” value was 2.9. As for `OC[C@H]1OC(O)[C@H](O)[C@@H](O)[C@@H]1O` (stereo partly shown) [Glc], in test [1], the Ki was 21 ± 4 mM and the “Relative potency, Langerin” value was 0.20. With `CC(=O)N[C@@H]1[C@@H](O)[C@H](O)[C@@H](CO)O[C@H]1O` [GlcNAc, N-acetyl glucosamine], in test [1], the Ki amounted to 4.1 ± 0.7 mM and the “Relative potency, Langerin” value is 1.0. The matching figures for `CC(=O)N[C@H]1C(O)O[C@H](COS(=O)(=O)O)[C@@H](O)[C@@H]1O` (stereo partly shown) [GlcNAc-6-OS, N-acetyl glucosamine-6-sulfate]: 0.6 ± 0.1 mM and 6.8.

With `O=S(=O)(O)N[C@H]1C(O)O[C@H](COS(=O)(=O)O)[C@@H](O)[C@@H]1O` (stereo partly shown) [GlcNS-6-OS, glucosamine-2-sulfate-6-sulfate], in test [1], affinity was put at a Ki of 0.28 ± 0.06 mM and the “Relative potency, Langerin” value is 14. As to `Cc1ccc(S(=O)(=O)N[C@H]2[C@H](OCCN)O[C@H](CO)[C@@H](O)[C@@H]2O)cc1` [compound 15], in test [1] (from KI values, Langerin, b47 words it as over natural glycans), the “affinity increase over Man-based reference molecule 21” value is on record as 42 fold.
